Source: ChEMBL document CHEMBL1146304, “Alpha-methyltryptamine sulfonamide derivatives as novel glucocorticoid receptor ligands” (Bioorg Med Chem Lett, 2007)

Experiments:
Glucocorticoid receptor = target: T1, Glucocorticoid receptor (Homo sapiens, UniProt P04150)
T1 sequence (P04150 whole entry): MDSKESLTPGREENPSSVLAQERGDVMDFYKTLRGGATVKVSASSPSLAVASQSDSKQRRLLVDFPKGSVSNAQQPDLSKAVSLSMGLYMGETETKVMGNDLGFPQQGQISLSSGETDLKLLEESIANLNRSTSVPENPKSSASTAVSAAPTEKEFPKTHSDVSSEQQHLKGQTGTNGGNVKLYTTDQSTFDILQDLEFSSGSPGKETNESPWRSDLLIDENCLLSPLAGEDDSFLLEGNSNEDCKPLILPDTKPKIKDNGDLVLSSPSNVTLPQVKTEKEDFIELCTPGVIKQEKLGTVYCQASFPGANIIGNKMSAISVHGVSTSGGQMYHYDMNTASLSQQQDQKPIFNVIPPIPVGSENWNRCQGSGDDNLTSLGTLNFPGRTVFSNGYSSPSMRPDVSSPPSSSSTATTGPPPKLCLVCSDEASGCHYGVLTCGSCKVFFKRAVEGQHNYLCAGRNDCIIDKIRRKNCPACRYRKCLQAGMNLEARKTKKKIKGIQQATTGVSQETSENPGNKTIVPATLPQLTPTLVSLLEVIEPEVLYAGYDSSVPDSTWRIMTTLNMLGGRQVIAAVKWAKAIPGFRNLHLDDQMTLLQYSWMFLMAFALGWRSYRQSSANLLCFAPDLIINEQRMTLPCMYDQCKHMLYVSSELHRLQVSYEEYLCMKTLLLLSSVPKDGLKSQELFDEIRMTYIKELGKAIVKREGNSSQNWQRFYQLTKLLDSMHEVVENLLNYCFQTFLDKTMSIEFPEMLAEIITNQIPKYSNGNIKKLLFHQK

Progesterone receptor = target: T2, Progesterone receptor (Homo sapiens, UniProt P06401); assay: Inhibition of human PR
T2 sequence (P06401 whole entry): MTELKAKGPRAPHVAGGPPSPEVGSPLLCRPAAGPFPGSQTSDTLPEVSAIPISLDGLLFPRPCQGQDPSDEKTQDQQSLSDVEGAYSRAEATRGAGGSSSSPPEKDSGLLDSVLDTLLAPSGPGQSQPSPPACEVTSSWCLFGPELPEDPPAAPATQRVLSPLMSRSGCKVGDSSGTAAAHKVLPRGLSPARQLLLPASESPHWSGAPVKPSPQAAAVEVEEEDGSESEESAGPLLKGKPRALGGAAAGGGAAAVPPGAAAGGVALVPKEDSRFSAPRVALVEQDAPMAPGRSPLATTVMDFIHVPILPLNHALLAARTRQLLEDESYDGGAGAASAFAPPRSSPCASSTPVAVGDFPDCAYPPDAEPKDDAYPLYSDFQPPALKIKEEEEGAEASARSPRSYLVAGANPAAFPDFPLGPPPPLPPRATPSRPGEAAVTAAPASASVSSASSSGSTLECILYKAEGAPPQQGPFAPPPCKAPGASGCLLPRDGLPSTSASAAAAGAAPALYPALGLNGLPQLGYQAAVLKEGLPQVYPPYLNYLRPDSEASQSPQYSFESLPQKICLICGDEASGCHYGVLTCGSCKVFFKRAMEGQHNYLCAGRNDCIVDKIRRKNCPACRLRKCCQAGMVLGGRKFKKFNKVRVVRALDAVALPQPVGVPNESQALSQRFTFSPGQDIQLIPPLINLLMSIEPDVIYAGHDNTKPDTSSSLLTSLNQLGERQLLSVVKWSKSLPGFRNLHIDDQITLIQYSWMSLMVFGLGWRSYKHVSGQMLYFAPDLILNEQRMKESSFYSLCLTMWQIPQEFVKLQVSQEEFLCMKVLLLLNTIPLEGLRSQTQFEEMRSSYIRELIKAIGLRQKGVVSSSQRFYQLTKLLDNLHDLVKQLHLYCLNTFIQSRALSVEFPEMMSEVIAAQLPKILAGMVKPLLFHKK

[1] = target: T3, Mineralocorticoid receptor (Homo sapiens, UniProt P08235); assay: Inhibition of human MR
T3 sequence (P08235 whole entry): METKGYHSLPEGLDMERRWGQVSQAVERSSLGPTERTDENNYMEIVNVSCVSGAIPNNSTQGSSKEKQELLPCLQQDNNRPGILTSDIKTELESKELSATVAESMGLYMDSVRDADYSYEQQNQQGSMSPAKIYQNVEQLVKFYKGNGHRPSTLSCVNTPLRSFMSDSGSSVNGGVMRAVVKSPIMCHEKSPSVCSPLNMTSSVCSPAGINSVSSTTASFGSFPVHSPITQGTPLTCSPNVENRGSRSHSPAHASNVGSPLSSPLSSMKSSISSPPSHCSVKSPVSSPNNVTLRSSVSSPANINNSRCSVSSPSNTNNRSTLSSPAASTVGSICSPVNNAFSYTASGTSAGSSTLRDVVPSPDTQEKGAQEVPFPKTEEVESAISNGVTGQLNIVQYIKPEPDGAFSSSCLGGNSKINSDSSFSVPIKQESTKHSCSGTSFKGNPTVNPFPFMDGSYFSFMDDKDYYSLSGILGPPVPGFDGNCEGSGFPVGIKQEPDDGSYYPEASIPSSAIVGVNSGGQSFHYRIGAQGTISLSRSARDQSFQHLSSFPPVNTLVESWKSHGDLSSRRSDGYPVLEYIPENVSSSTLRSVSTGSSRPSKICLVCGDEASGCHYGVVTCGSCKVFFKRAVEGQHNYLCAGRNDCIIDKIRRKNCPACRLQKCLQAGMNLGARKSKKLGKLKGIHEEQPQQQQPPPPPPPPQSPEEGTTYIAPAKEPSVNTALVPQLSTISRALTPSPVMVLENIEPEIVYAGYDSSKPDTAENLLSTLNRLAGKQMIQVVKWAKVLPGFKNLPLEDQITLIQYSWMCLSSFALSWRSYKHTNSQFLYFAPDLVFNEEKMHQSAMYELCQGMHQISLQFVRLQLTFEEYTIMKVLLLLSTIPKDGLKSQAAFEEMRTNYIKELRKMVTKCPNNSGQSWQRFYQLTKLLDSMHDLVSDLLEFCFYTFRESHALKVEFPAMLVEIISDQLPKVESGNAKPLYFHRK

Homo sapiens [2] = species on record: Homo sapiens; assay: Selectivity for human glucocorticoid receptor over human progesterone receptor
Homo sapiens [3] = species on record: Homo sapiens; assay: Selectivity for human glucocorticoid receptor over human mineralocorticoid receptor

Cc1ccc(S(=O)(=O)NC(C)Cc2c[nH]c3ccccc23)cc1 (stereo unspecified)
IC50 (Glucocorticoid receptor): 5700 nM

CC(Cc1c[nH]c2ccccc12)NS(=O)(=O)c1ccc(Cl)cc1Cl (stereo unspecified)
IC50 (Progesterone receptor): > 2000 nM | IC50 [1]: 850 nM | IC50 (Glucocorticoid receptor): 480 nM

CCC(Cc1c[nH]c2ccccc12)NS(=O)(=O)c1c(Cl)cc(Cl)cc1Cl (stereo unspecified)
IC50 (Glucocorticoid receptor): 64 nM

CC(Cc1c[nH]c2ccccc12)NS(=O)(=O)c1ccc(C(C)C)cc1 (stereo unspecified)
IC50 (Progesterone receptor): 1000 nM | IC50 [1]: 1400 nM | IC50 (Glucocorticoid receptor): 750 nM

CC(Cc1c[nH]c2ccccc12)NS(=O)(=O)c1cccc(Cl)c1 (stereo unspecified)
IC50 (Glucocorticoid receptor): 4100 nM

CCCc1ccc(S(=O)(=O)NC(C)Cc2c[nH]c3ccccc23)cc1 (stereo unspecified)
IC50 (Glucocorticoid receptor): 1600 nM

CC(Cc1cn(C)c2ccccc12)NS(=O)(=O)c1c(Cl)cc(Cl)cc1Cl (stereo unspecified)
IC50 (Glucocorticoid receptor): > 2000 nM

Cc1[nH]c2ccccc2c1CC(C)NS(=O)(=O)c1c(Cl)cc(Cl)cc1Cl (stereo unspecified)
IC50 (Glucocorticoid receptor): 570 nM

Cc1cc(C)c(S(=O)(=O)NC(C)Cc2c[nH]c3cc(F)ccc23)c(C)c1 (stereo unspecified)
IC50 (Glucocorticoid receptor): 79 nM

Cc1cccc(S(=O)(=O)NC(C)Cc2c[nH]c3ccccc23)c1 (stereo unspecified)
IC50 (Glucocorticoid receptor): > 10000 nM

CC(Cc1c[nH]c2ccccc12)NS(=O)(=O)c1ccc(-c2ccccc2)cc1 (stereo unspecified)
IC50 (Glucocorticoid receptor): 2600 nM

Cc1cc(C)c(S(=O)(=O)N[C@H](C)Cc2c[nH]c3ccccc23)c(C)c1
IC50 (Progesterone receptor): > 2000 nM | IC50 [1]: 520 nM | IC50 (Glucocorticoid receptor): > 2000 nM

Cc1cc(C)c(S(=O)(=O)NC(C)Cc2c[nH]c3cc(C)ccc23)c(C)c1 (stereo unspecified)
IC50 (Glucocorticoid receptor): 490 nM

Cc1cc(C)c(S(=O)(=O)NCCc2c[nH]c3ccccc23)c(C)c1
IC50 (Glucocorticoid receptor): > 2000 nM

CC(Cc1c[nH]c2ccccc12)NC(=O)Nc1c(Cl)cc(Cl)cc1Cl (stereo unspecified)
IC50 (Glucocorticoid receptor): > 2000 nM

C[C@@H]1C[C@H]2[C@@H]3CCC4=CC(=O)C=C[C@]4(C)[C@@]3(F)[C@@H](O)C[C@]2(C)[C@@]1(O)C(=O)CO [DEXAMETHASONE]
IC50 (Progesterone receptor): > 2000 nM

CC(Cc1c[nH]c2ccccc12)NS(=O)(=O)c1ccccc1[N+](=O)[O-] (stereo unspecified)
IC50 (Glucocorticoid receptor): > 10000 nM

Cc1cc(C)c(S(=O)(=O)NC(CO)Cc2c[nH]c3ccccc23)c(C)c1 (stereo unspecified)
IC50 (Glucocorticoid receptor): > 2000 nM

CC(Cc1c[nH]c2ccccc12)NS(=O)(=O)c1cccc(C#N)c1 (stereo unspecified)
IC50 (Glucocorticoid receptor): > 10000 nM

Cc1cc(C)c(S(=O)(=O)NC(C)Cc2c[nH]c3ccccc23)c(C)c1 (stereo unspecified)
Ratio IC50 (Homo sapiens [2]): 35 | Ratio IC50 (Homo sapiens [3]): 7 | IC50 (Progesterone receptor): 1400 nM | IC50 [1]: 290 nM | IC50 (Glucocorticoid receptor): 40 nM

CC(Cc1c[nH]c2ccccc12)NS(=O)(=O)c1cc(F)c(Br)cc1F (stereo unspecified)
IC50 (Glucocorticoid receptor): 3600 nM

COc1ccc2[nH]cc(CC(C)NS(=O)(=O)c3c(Cl)cc(Cl)cc3Cl)c2c1 (stereo unspecified)
IC50 (Glucocorticoid receptor): > 2000 nM

CC(Cc1c[nH]c2ccccc12)NS(=O)(=O)c1ccccc1 (stereo unspecified)
IC50 (Glucocorticoid receptor): > 10000 nM

Cc1cc(C)c(S(=O)(=O)N[C@@H](C)Cc2c[nH]c3ccccc23)c(C)c1
Ratio IC50 (Homo sapiens [3]): 34 | IC50 (Progesterone receptor): 1200 nM | IC50 [1]: 1000 nM | IC50 (Glucocorticoid receptor): 29 nM

COc1ccc(S(=O)(=O)NC(C)Cc2c[nH]c3ccccc23)cc1 (stereo unspecified)
IC50 (Glucocorticoid receptor): > 10000 nM

CC(Cc1c[nH]c2ccccc12)NS(=O)(=O)c1cc(Cl)cc(Cl)c1 (stereo unspecified)
IC50 (Glucocorticoid receptor): 4600 nM

COC(=O)[C@@H](Cc1c[nH]c2ccccc12)NS(=O)(=O)c1c(C)cc(C)cc1C
IC50 (Glucocorticoid receptor): > 2000 nM

CC(Cc1c[nH]c2ccccc12)NS(=O)(=O)c1cc(Cl)cc(Cl)c1O (stereo unspecified)
IC50 (Glucocorticoid receptor): > 10000 nM

Cc1cccc(Cl)c1S(=O)(=O)NC(C)Cc1c[nH]c2ccccc12 (stereo unspecified)
IC50 (Glucocorticoid receptor): 280 nM

Cc1cc(C)c(S(=O)(=O)NC(C)Cc2cc3ccccc3[nH]2)c(C)c1 (stereo unspecified)
IC50 (Glucocorticoid receptor): > 2000 nM

CC(Cc1c[nH]c2ccccc12)NS(=O)(=O)c1ccc(Cl)c(Cl)c1 (stereo unspecified)
IC50 (Glucocorticoid receptor): 6900 nM

CC(Cc1c[nH]c2ccccc12)NS(=O)(=O)c1ccc(Cl)cc1 (stereo unspecified)
IC50 (Glucocorticoid receptor): 2100 nM

CC(Cc1c[nH]c2ccccc12)NS(=O)(=O)c1c(C(C)C)cc(C(C)C)cc1C(C)C (stereo unspecified)
IC50 (Progesterone receptor): > 2000 nM | IC50 [1]: > 2000 nM | IC50 (Glucocorticoid receptor): 67 nM

CC(=O)Nc1ccc(S(=O)(=O)NC(C)Cc2c[nH]c3ccccc23)cc1 (stereo unspecified)
IC50 (Glucocorticoid receptor): > 10000 nM

COC(=O)[C@H](Cc1c[nH]c2ccccc12)NS(=O)(=O)c1c(C)cc(C)cc1C
IC50 (Glucocorticoid receptor): > 2000 nM

CC(Cc1c[nH]c2ccccc12)NS(=O)(=O)c1ccc(Cl)c(Cl)c1Cl (stereo unspecified)
IC50 (Glucocorticoid receptor): 1900 nM

CC(Cc1c[nH]c2ccccc12)NS(=O)(=O)c1ccc(C(C)(C)C)cc1 (stereo unspecified)
IC50 (Progesterone receptor): > 2000 nM | IC50 [1]: 1070 nM | IC50 (Glucocorticoid receptor): 735 nM

CC(Cc1c[nH]c2ccccc12)NS(=O)(=O)c1ccccc1Cl (stereo unspecified)
IC50 (Glucocorticoid receptor): 4100 nM

CC(Cc1c[nH]c2ccccc12)NS(=O)(=O)c1ccc([N+](=O)[O-])cc1 (stereo unspecified)
IC50 (Glucocorticoid receptor): > 10000 nM

Cc1c(Cl)cccc1S(=O)(=O)NC(C)Cc1c[nH]c2ccccc12 (stereo unspecified)
IC50 (Glucocorticoid receptor): 820 nM

Cc1cc(C)c(S(=O)(=O)NC(C)Cc2c[nH]c3ccc(F)cc23)c(C)c1 (stereo unspecified)
IC50 (Glucocorticoid receptor): 65 nM

CC(Cc1c[nH]c2ccccc12)NS(=O)(=O)c1cccc(Cl)c1Cl (stereo unspecified)
IC50 (Glucocorticoid receptor): 1200 nM

CC(Cc1c[nH]c2ccccc12)NS(=O)(=O)c1cc(Cl)c(Cl)cc1Cl (stereo unspecified)
IC50 (Progesterone receptor): 440 nM | IC50 [1]: 1000 nM | IC50 (Glucocorticoid receptor): 990 nM

Cc1cc(C)c(C(=O)NC(C)Cc2c[nH]c3ccccc23)c(C)c1 (stereo unspecified)
IC50 (Glucocorticoid receptor): > 2000 nM

CC(Cc1c[nH]c2ccccc12)NS(=O)(=O)c1cc(Cl)ccc1Cl (stereo unspecified)
IC50 (Glucocorticoid receptor): 1300 nM

Cc1cc(C)c(S(=O)(=O)NC(C)Cc2c[nH]c3c(C)cccc23)c(C)c1 (stereo unspecified)
IC50 (Glucocorticoid receptor): 120 nM

CC(Cc1c[nH]c2ccccc12)NS(=O)(=O)c1c(Cl)cc(Cl)cc1Cl (stereo unspecified)
Ratio IC50 (Homo sapiens [2]): 8 | IC50 (Progesterone receptor): 570 nM | IC50 [1]: 130 nM | IC50 (Glucocorticoid receptor): 64 nM

CC(Cc1c[nH]c2ccccc12)NS(=O)(=O)c1c(Cl)cccc1Cl (stereo unspecified)
Ratio IC50 (Homo sapiens [3]): 6 | IC50 (Progesterone receptor): 170 nM | IC50 [1]: 1600 nM | IC50 (Glucocorticoid receptor): 240 nM

Cc1cc(C)c(S(=O)(=O)N(C)C(C)Cc2c[nH]c3ccccc23)c(C)c1 (stereo unspecified)
IC50 (Glucocorticoid receptor): 1300 nM

Cc1cc(S(=O)(=O)NC(C)Cc2c[nH]c3ccccc23)c(C)cc1Cl (stereo unspecified)
IC50 (Glucocorticoid receptor): 1800 nM

Cc1cc(C)c(CNC(C)Cc2c[nH]c3ccccc23)c(C)c1 (stereo unspecified)
IC50 (Glucocorticoid receptor): > 2000 nM
